Test results: patent publication US4187373A, “Novel dihydrobenzanthracene derivatives” (American Cyanamid Company, priority 1978, dated 1980)
Where “and” joins values, the source holds several entries; their conditions need not be identical. Identical values can stand only once. Counter-ions that a name gives are not always drawn.

Tests used:
[1] = test system: lymphocytic leukemia P388; experiment: Lymphocytic Leukemia P388 Test; assay type: in vivo, mice
Procedure: The animals used are mice all of one sex, weighing a minimum of 17 g. and all within a 3 gram weight range. There are 5 or 6 animals per test group. The tumor transplant is by intraperitoneal injection of 0.1 ml. or 0.5 ml. of dilute ascitic fluid containing 10^6 cells of lymphocytic leukemia P388. The test compounds are administered intraperitoneally on days one, 5 and 9 (relative to tumor inoculation) at various doses. The animals are weighed and survivors are recorded on a regular basis for 30 days. The median survival time and the ratio of survival time for treated (T)/control (C) animals are calculated. […] The results of this test with representative compounds of the present invention appear in Table II below. The criterion for efficacy is T/C×100≥125%.

[2] = test system: Staphylococcus aureus, OSU 75-2; experiment: antibacterial activity in vitro, agar-dilution streak-plate technique; assay type: cell-based; settings: OSU752, 37° C. for 18 hours, read-out: minimal inhibitory concentration (MIC)
Procedure: (§1) The antibacterial spectrum in terms of the concentration required to inhibit the growth of various typical bacteria was determined in a standard manner by the agar-dilution streak-plate technique. A Steers multiple inocula replicator was used with incubation at 37° C. for 18 hours in Mueller-Ninton agar. The results for 7,12-bis-(2-imidazolin-2-ylhydrazone)benz[a]anthracene-7,12-dicarboxaldehyde dihydrochloride, a typical compound of this invention, are set forth in Table I as the minimal inhibitory concentration (MIC) in micrograms per milliliter.

Enterococcus, SM 77-15 = experiment: as above; assay type: cell-based; settings: SM7715, 37° C. for 18 hours, read-out: minimal inhibitory concentration (MIC)
Procedure: as §1

[3] = test system: Staphylococcus aureus, Q 74-11; experiment: as above; assay type: cell-based; settings: Q7411, 37° C. for 18 hours, read-out: minimal inhibitory concentration (MIC)
Procedure: as §1

[4] = test system: Staphylococcus aureus, St. Paul (NYC 78-1); experiment: as above; assay type: cell-based; settings: 37° C. for 18 hours, read-out: minimal inhibitory concentration (MIC)
Procedure: as §1

[5] = test system: melanotic melanoma B16 tumor; experiment: Melanotic Melanoma B16; assay type: in vivo, C57BC/6 mice
Procedure: The animals used are C57BC/6 mice, all of the same sex, weighing a minimum of 17 g. and all within a 3 g. weight range. There are normally 10 animals per test group. A one-gram portion of melanotic melanoma B16 tumor is homogenized in 10 ml. of cold balanced salt solution and a 0.5 ml. aliquot of the homogenate is implanted intraperitoneally into each of the test mice. The test compounds are administered intraperitoneally on days one through 9 (relative to tumor inoculation) at various doses. The animals are weighed and survivors are recorded on a regular basis for 60 days. The median survival time and the ratio of survival time for treated (T)/control (C) animals are calculated. The positive control compound is 5-fluorouracil given as a 20 mg./kg. injection. The results of this test with a representative compound of the present invention appear in Table III below. The criterion for efficacy is T/C×100≥125%.

[6] = P388, dose 0.78 mg./kg. intraperitoneally on days one, 5 and 9
[7] = P388, dose 1.56 mg./kg. intraperitoneally on days one, 5 and 9, dihydrochloride
[8] = P388, dose 3.12 mg./kg. intraperitoneally on days one, 5 and 9, dihydrochloride
[9] = P388, dose 6.25 mg./kg. intraperitoneally on days one, 5 and 9, dihydrochloride
[10] = P388, dose 12.5 mg./kg. intraperitoneally on days one, 5 and 9, dihydrochloride
[11] = P388, dose 25 mg./kg. intraperitoneally on days one, 5 and 9, dihydrochloride
[12] = P388, dose 1.56 mg./kg. intraperitoneally on days one, 5 and 9
[13] = P388, dose 3.12 mg./kg. intraperitoneally on days one, 5 and 9
[14] = P388, dose 6.25 mg./kg. intraperitoneally on days one, 5 and 9
[15] = P388, dose 12.5 mg./kg. intraperitoneally on days one, 5 and 9
[16] = P388, dose 25 mg./kg. intraperitoneally on days one, 5 and 9
[17] = B16, positive control, dose 20 mg./kg.
[18] = P388, positive control, dose 40 mg./kg.
[19] = P388, positive control, dose 60 mg./kg.
[20] = B16, dose 0.2 mg./kg. intraperitoneally on days one through 9
[21] = B16, dose 0.5 mg./kg. intraperitoneally on days one through 9
[22] = B16, dose 1.5 mg./kg. intraperitoneally on days one through 9
[23] = B16, dose 3 mg./kg. intraperitoneally on days one through 9

SMILES | Median Survival [1, 6] [days] | T/C × 100 (Percent) [1, 6] [%] | Median Survival [1, 12] [days] | T/C × 100 (Percent) [1, 12] [%] | Median Survival [1, 13] [days] | T/C × 100 (Percent) [1, 13] [%] | Median Survival [1, 14] [days] | T/C × 100 (Percent) [1, 14] [%] | Median Survival [1, 15] [days] | T/C × 100 (Percent) [1, 15] [%] | further results
C(=NNC1=NCCN1)C1c2ccccc2C(C=NNC2=NCCN2)c2c1ccc1ccccc21 (stereo not drawn) [Bis(2-imidazolin-2-ylhydrazone) of 7,12-dihydrobenz[a]anthracene-7,12-dicarboxaldehyde dihydrochloride] | 13.0 | 130 | – | – | – | – | – | – | – | – | Median Survival [1, 7]: 13.5 days; T/C × 100 (Percent) [1, 7]: 135%; Median Survival [1, 8]: 16.5 days; T/C × 100 (Percent) [1, 8]: 165%; Median Survival [1, 9]: 16.5 days; T/C × 100 (Percent) [1, 9]: 165%; Median Survival [1, 10]: 17.5 days; T/C × 100 (Percent) [1, 10]: 175%; Median Survival [1, 11]: 17 days; T/C × 100 (Percent) [1, 11]: 170%
C(=NNC1=NCCN1)c1c2ccccc2c(C=NNC2=NCCN2)c2c1ccc1ccccc12 [Bis(2-imidazolin-2-ylhydrazone)-7,12-benz[a]anthracene dicarboxaldehyde dihydrochloride] | 15.0 | 150 | 16.0 | 160 | 17.5 | 175 | 19.0 | 190 | 19.0 | 190 | MIC [2]: 16 µg/mL; MIC (Enterococcus, SM 77-15): 8 µg/mL; MIC [3]: 8 µg/mL; MIC [4]: 8 µg/mL
C(=NNC1=NCCN1)C1c2ccccc2C(C=NNC2=NCCN2)c2c1ccc1ccccc21 (stereo not drawn) [Bis(2-imidazolin-2-ylhydrazone)-7,12-dihydro-benz[a]anthracene dicarboxaldehyde] | – | – | 14.5 | 132 | 14 | 127 | 16 | 145 | 18 | 164 | Median Survival [1, 16]: 20 days; T/C × 100 (Percent) [1, 16]: 182%
C(=NNC1=NCCN1)c1c2ccccc2c(C=NNC2=NCCN2)c2cc3ccccc3cc12 [Bis(2-imidazolin-2-ylhydrazone)-5,12-benz[b]anthracene dicarboxaldehyde dihydrochloride] | 15.0 | 130 | 15.5 | 135 | 18.0 | 157 | 18.5 | 161 | 22.0 | 191 | –
O=c1[nH]cc(F)c(=O)[nH]1 [5-Fluorouracil, 5-fluorouracil, reference compound] | – | – | – | – | – | – | – | – | – | – | Median Survival [5, 17]: 25.5 days; T/C × 100 (Percent) [5, 17]: 155%; Median Survival [1, 18]: 18 days and 18.5 days; T/C × 100 (Percent) [1, 18]: 164% and 154%; Median Survival [1, 19]: 12.5 days and 20.0 days; T/C × 100 (Percent) [1, 19]: 109% and 200%
C(=NNC1=NCCN1)c1c2ccccc2c(C=NNC2=NCCN2)c2c1ccc1ccccc12 [Bis(2-imidazolin-2-ylhydrazone) of benz[a]anthracene-7,12-dicarboxaldehyde] | – | – | – | – | – | – | – | – | – | – | Median Survival [5, 20]: 22.0 days; T/C × 100 (Percent) [5, 20]: 133%; Median Survival [5, 21]: 25.0 days; T/C × 100 (Percent) [5, 21]: 152%; Median Survival [5, 22]: 30.5 days; T/C × 100 (Percent) [5, 22]: 185%; Median Survival [5, 23]: 31.0 days; T/C × 100 (Percent) [5, 23]: 188%
